Tested on: immature castrated male rat
Experiment: immature castrated male rat model: ventral prostate, seminal vesicle and levator ani growth
Type: in vivo
Conditions: oral; for LA (wet wt) / LA eff (% intact) / SV (wet wt) / SV eff (% intact) / VP (wet wt) / VP eff (% of intact): Table 4, castrated immature rats, once daily, 3 days
Source text: The activity of selected compounds of the present invention as AR agonists was investigated in an immature castrated male rat model, a recognized test of the androgen of a given compound, as described in L. G. Hershberger et al., “Myotrophic Activity of 19-Nortestosterone and Other Steroids Determined by Modified Levator Ani Muscle Method” 83 Proc. Soc. Exptl.
The basis of this assay is the fact that the male sexual accessory organs, such as the prostate and seminal vesicles, play an important role in reproductive function. […] F. Labrie et al. 16 Clin. Invest. […] However, this is not a major pathway, since in both animals and humans, castration leads to almost complete involution of the prostate and seminal vesicles without concomitant adrenalectomy. […] Since the male sex organs are the tissues most responsive to modulation of androgen activity, this model is used to determine the androgen-dependent growth of the sex accessory organs in immature castrated rats. […] Male immature rats ([…], 21-day-old, Sprague-Dawley, Harlan) were castrated under metofane anesthesia. Immediately after surgery, animals groups were dosed for 3 days as follows:
At the end of the 3-day treatment, the animals were sacrificed, and the ventral prostates (VP), seminal vesicles (SV), and levator ani (LA) were collected and weighed. The sexual organ weights were first standardized as mg per 100 g of body weight, and the increase in organ weight induced by the compounds of the present invention was compared to the castrate control animals. […] Super-anova (one factor) was used for statistical analysis.
The gain and loss of sexual organ weights reflect the changes of cell number (DNA content) and cell mass (protein content), depending upon the serum androgen concentration. […] Therefore, measurement of organ wet weights is sufficient to indicate the bioactivity of androgens and androgen antagonists.

O=c1cc(C(F)(F)F)c2cc3c(cc2[nH]1)OCCN3CC(F)(F)F [Compound 105, 1,2,3,6-Tetrahydro-1-(2,2,2-trifluoroethyl)-9-(trifluoromethyl)-7H-[1,4]oxazino[3,2-g]quinolin-7-one]
LA (wet wt) (3 mg/kg): 33.0 ± 2.4 mg/100 g body weight
LA eff (% intact) (3 mg/kg): 306 ± 140%
SV (wet wt) (3 mg/kg): 8.5 ± 0.7 mg/100 g body weight
SV eff (% intact) (3 mg/kg): 15 ± 13%
VP (wet wt) (3 mg/kg): 26.9 ± 1.1 mg/100 g body weight
VP eff (% of intact) (3 mg/kg): 12 ± 5%
LA (wet wt) (10 mg/kg): 36.3 ± 1.3 mg/100 g body weight
LA eff (% intact) (10 mg/kg): 498 ± 73%
SV (wet wt) (10 mg/kg): 9.9 ± 0.4 mg/100 g body weight
SV eff (% intact) (10 mg/kg): 42 ± 8.2%
VP (wet wt) (10 mg/kg): 35.9 ± 2.7 mg/100 g body weight
VP eff (% of intact) (10 mg/kg): 52 ± 12%
LA (wet wt) (30 mg/kg): 35.8 ± 1.2 mg/100 g body weight
LA eff (% intact) (30 mg/kg): 469 ± 71%
SV (wet wt) (30 mg/kg): 11.7 ± 1.4 mg/100 g body weight
SV eff (% intact) (30 mg/kg): 78 ± 26%
VP (wet wt) (30 mg/kg): 30.1 ± 2.1 mg/100 g body weight
VP eff (% of intact) (30 mg/kg): 26 ± 9%
LA (wet wt) (100 mg/kg): 39.7 ± 0.6 mg/100 g body weight
LA eff (% intact) (100 mg/kg): 696 ± 36%
SV (wet wt) (100 mg/kg): 14.4 ± 1.0 mg/100 g body weight
SV eff (% intact) (100 mg/kg): 131 ± 19%
VP (wet wt) (100 mg/kg): 42.1 ± 1.6 mg/100 g body weight
VP eff (% of intact) (100 mg/kg): 80 ± 7%
AR agonist activity: weights of the VP, SV and LA (immature castrated rat, statement in words): exhibited AR agonist activity

Reference: US6462038B1, “Androgen receptor modulator compounds and methods” (Ligand Pharmaceuticals, Inc., priority 1999, dated 2002)
